Test system: CD8 cells & tumor cell lines (K562, M21, CRL2505, MDA-MB-231, A549, TC71, MG63, RD, U138MG)
Test: Isolated CD8 cells in co-culture with tumor cell lines of diverse origin: IFN-gamma, IL-2, granzyme
Assay type: cell-based, human
Description: Isolated PBMCs, NK cells or CD8 positive cells were plated in Xvivo medium at 1.5*10^5 cells per in 96 well culture plates in the presence of 0.3*10^4 tumor cells where indicated. Cytokine secretion was determined by ELISA, immune cell activation (using Beckman-Coulter Abs CD25-PC5, CD69-PC7), cell viability and numbers by flow cytometry (Beckman-Coulter FC500 or Gallios) using 7-AAD exclusion as criterion for living cells. PBMCs were isolated and incubated with and without compounds, either alone or in co-culture with different tumor cells.

Cl.N[C@H]1CS(=O)(=O)c2cc(F)c(C(=O)NCCCC(F)(F)F)cc2N(Cc2ccc(Cl)cc2)C1=O [Example 70, (3R)-3-amino-5-[(4-chlorophenyl)methyl]-8-fluoro-1,1,4-trioxo-N-(4,4,4-trifluoro-butyl)-2,3,4,5-tetrahydro-1λ^6,5-benzothiazepine-7-carboxamide hydrochloride]
Granzyme (CD8 cells & A549, 0.1 μM): 0.04 ng/mL
IFN-gamma (CD8 cells & A549, 0.1 μM): 0.01 ng/mL
IL-2 (CD8 cells & A549, 0.1 μM): 0.00 ng/mL
Granzyme (CD8 cells & A549, 0.3 μM): 0.09 ng/mL
IFN-gamma (CD8 cells & A549, 0.3 μM): 0.03 ng/mL
IL-2 (CD8 cells & A549, 0.3 μM): 0.15 ng/mL
Granzyme (CD8 cells & A549, 1 μM): 0.10 ng/mL
IFN-gamma (CD8 cells & A549, 1 μM): 0.08 ng/mL
IL-2 (CD8 cells & A549, 1 μM): 0.36 ng/mL
Granzyme (CD8 cells & A549, 3 μM): 0.07 ng/mL
IFN-gamma (CD8 cells & A549, 3 μM): 0.07 ng/mL
IL-2 (CD8 cells & A549, 3 μM): 0.28 ng/mL
Granzyme (CD8 cells & A549, 10 μM): 0.16 ng/mL
IFN-gamma (CD8 cells & A549, 10 μM): 0.16 ng/mL
IL-2 (CD8 cells & A549, 10 μM): 0.59 ng/mL
Granzyme (CD8 cells & K562, 0.1 μM): 1.58 ng/mL
IFN-gamma (CD8 cells & K562, 0.1 μM): 6.97 ng/mL
IL-2 (CD8 cells & K562, 0.1 μM): 3.86 ng/mL
Granzyme (CD8 cells & K562, 0.3 μM): 2.38 ng/mL
IFN-gamma (CD8 cells & K562, 0.3 μM): 7.57 ng/mL
IL-2 (CD8 cells & K562, 0.3 μM): 3.20 ng/mL
Granzyme (CD8 cells & K562, 1 μM): 1.81 ng/mL
IFN-gamma (CD8 cells & K562, 1 μM): 11.23 ng/mL
IL-2 (CD8 cells & K562, 1 μM): 4.08 ng/mL
Granzyme (CD8 cells & K562, 3 μM): 3.91 ng/mL
IFN-gamma (CD8 cells & K562, 3 μM): 8.44 ng/mL
IL-2 (CD8 cells & K562, 3 μM): 3.72 ng/mL
Granzyme (CD8 cells & K562, 10 μM): 4.83 ng/mL
IFN-gamma (CD8 cells & K562, 10 μM): 8.26 ng/mL
IL-2 (CD8 cells & K562, 10 μM): 2.82 ng/mL
Granzyme (CD8 cells & M21, 0.1 μM): 0.24 ng/mL
IFN-gamma (CD8 cells & M21, 0.1 μM): 0.00 ng/mL
IL-2 (CD8 cells & M21, 0.1 μM): 0.39 ng/mL
Granzyme (CD8 cells & M21, 0.3 μM): 0.53 ng/mL
IFN-gamma (CD8 cells & M21, 0.3 μM): 0.02 ng/mL
IL-2 (CD8 cells & M21, 0.3 μM): 0.31 ng/mL
Granzyme (CD8 cells & M21, 1 μM): 0.41 ng/mL
IFN-gamma (CD8 cells & M21, 1 μM): 0.06 ng/mL
IL-2 (CD8 cells & M21, 1 μM): 0.67 ng/mL
Granzyme (CD8 cells & M21, 3 μM): 0.40 ng/mL
IFN-gamma (CD8 cells & M21, 3 μM): 0.03 ng/mL
IL-2 (CD8 cells & M21, 3 μM): 0.64 ng/mL
Granzyme (CD8 cells & M21, 10 μM): 0.50 ng/mL
IFN-gamma (CD8 cells & M21, 10 μM): 0.10 ng/mL
IL-2 (CD8 cells & M21, 10 μM): 0.47 ng/mL
Granzyme (CD8 cells & MDA-MB-231, 0.1 μM): 1.86 ng/mL
IFN-gamma (CD8 cells & MDA-MB-231, 0.1 μM): 10.72 ng/mL
IL-2 (CD8 cells & MDA-MB-231, 0.1 μM): 1.51 ng/mL
Granzyme (CD8 cells & MDA-MB-231, 0.3 μM): 3.40 ng/mL
IFN-gamma (CD8 cells & MDA-MB-231, 0.3 μM): 20.55 ng/mL
IL-2 (CD8 cells & MDA-MB-231, 0.3 μM): 2.14 ng/mL
Granzyme (CD8 cells & MDA-MB-231, 1 μM): 4.23 ng/mL
IFN-gamma (CD8 cells & MDA-MB-231, 1 μM): 22.31 ng/mL
IL-2 (CD8 cells & MDA-MB-231, 1 μM): 2.40 ng/mL
Granzyme (CD8 cells & MDA-MB-231, 3 μM): 5.20 ng/mL
IFN-gamma (CD8 cells & MDA-MB-231, 3 μM): 25.24 ng/mL
IL-2 (CD8 cells & MDA-MB-231, 3 μM): 3.21 ng/mL
Granzyme (CD8 cells & MDA-MB-231, 10 μM): 5.93 ng/mL
IFN-gamma (CD8 cells & MDA-MB-231, 10 μM): 24.22 ng/mL
IL-2 (CD8 cells & MDA-MB-231, 10 μM): 3.63 ng/mL
Granzyme (CD8 cells & MG63, 0.1 μM): 0.23 ng/mL
IFN-gamma (CD8 cells & MG63, 0.1 μM): 0.92 ng/mL
IL-2 (CD8 cells & MG63, 0.1 μM): 0.00 ng/mL
Granzyme (CD8 cells & MG63, 0.3 μM): 0.29 ng/mL
IFN-gamma (CD8 cells & MG63, 0.3 μM): 1.43 ng/mL
IL-2 (CD8 cells & MG63, 0.3 μM): 0.00 ng/mL
Granzyme (CD8 cells & MG63, 1 μM): 0.28 ng/mL
IFN-gamma (CD8 cells & MG63, 1 μM): 1.79 ng/mL
IL-2 (CD8 cells & MG63, 1 μM): 0.00 ng/mL
Granzyme (CD8 cells & MG63, 3 μM): 0.38 ng/mL
IFN-gamma (CD8 cells & MG63, 3 μM): 1.92 ng/mL
IL-2 (CD8 cells & MG63, 3 μM): 0.00 ng/mL
Granzyme (CD8 cells & MG63, 10 μM): 0.44 ng/mL
IFN-gamma (CD8 cells & MG63, 10 μM): 2.36 ng/mL
IL-2 (CD8 cells & MG63, 10 μM): 0.00 ng/mL
Granzyme (CD8 cells & RD, 0.1 μM): 0.09 ng/mL
IFN-gamma (CD8 cells & RD, 0.1 μM): 0.12 ng/mL
IL-2 (CD8 cells & RD, 0.1 μM): 0.00 ng/mL
Granzyme (CD8 cells & RD, 0.3 μM): 0.16 ng/mL
IFN-gamma (CD8 cells & RD, 0.3 μM): 0.45 ng/mL
IL-2 (CD8 cells & RD, 0.3 μM): 0.00 ng/mL
Granzyme (CD8 cells & RD, 1 μM): 0.20 ng/mL
IFN-gamma (CD8 cells & RD, 1 μM): 0.54 ng/mL
IL-2 (CD8 cells & RD, 1 μM): 0.00 ng/mL
Granzyme (CD8 cells & RD, 3 μM): 0.17 ng/mL
IFN-gamma (CD8 cells & RD, 3 μM): 0.65 ng/mL
IL-2 (CD8 cells & RD, 3 μM): 0.00 ng/mL
Granzyme (CD8 cells & RD, 10 μM): 0.30 ng/mL
IFN-gamma (CD8 cells & RD, 10 μM): 1.59 ng/mL
IL-2 (CD8 cells & RD, 10 μM): 0.00 ng/mL
Granzyme (CD8 cells & TC71, 0.1 μM): 0.06 ng/mL
IFN-gamma (CD8 cells & TC71, 0.1 μM): 0.04 ng/mL
IL-2 (CD8 cells & TC71, 0.1 μM): 0.58 ng/mL
Granzyme (CD8 cells & TC71, 0.3 μM): 0.08 ng/mL
IFN-gamma (CD8 cells & TC71, 0.3 μM): 0.11 ng/mL
IL-2 (CD8 cells & TC71, 0.3 μM): 0.97 ng/mL
Granzyme (CD8 cells & TC71, 1 μM): 0.10 ng/mL
IFN-gamma (CD8 cells & TC71, 1 μM): 0.14 ng/mL
IL-2 (CD8 cells & TC71, 1 μM): 1.25 ng/mL
Granzyme (CD8 cells & TC71, 3 μM): 0.10 ng/mL
IFN-gamma (CD8 cells & TC71, 3 μM): 0.27 ng/mL
IL-2 (CD8 cells & TC71, 3 μM): 1.14 ng/mL
Granzyme (CD8 cells & TC71, 10 μM): 0.15 ng/mL
IFN-gamma (CD8 cells & TC71, 10 μM): 0.38 ng/mL
IL-2 (CD8 cells & TC71, 10 μM): 1.57 ng/mL
Granzyme (CD8 cells & U138MG, 0.1 μM): 0.03 ng/mL
IFN-gamma (CD8 cells & U138MG, 0.1 μM): 0.00 ng/mL
IL-2 (CD8 cells & U138MG, 0.1 μM): 0.00 ng/mL
Granzyme (CD8 cells & U138MG, 0.3 μM): 0.04 ng/mL
IFN-gamma (CD8 cells & U138MG, 0.3 μM): 0.01 ng/mL
IL-2 (CD8 cells & U138MG, 0.3 μM): 0.00 ng/mL
Granzyme (CD8 cells & U138MG, 1 μM): 0.01 ng/mL
IFN-gamma (CD8 cells & U138MG, 1 μM): 0.02 ng/mL
IL-2 (CD8 cells & U138MG, 1 μM): 0.04 ng/mL
Granzyme (CD8 cells & U138MG, 3 μM): 0.03 ng/mL
IFN-gamma (CD8 cells & U138MG, 3 μM): 0.02 ng/mL
IL-2 (CD8 cells & U138MG, 3 μM): 0.02 ng/mL
Granzyme (CD8 cells & U138MG, 10 μM): 0.05 ng/mL
IFN-gamma (CD8 cells & U138MG, 10 μM): 0.06 ng/mL
IL-2 (CD8 cells & U138MG, 10 μM): 0.08 ng/mL
Granzyme (CD8 cells only, 0.1 μM): 0.05 ng/mL
IFN-gamma (CD8 cells only, 0.1 μM): 0.00 ng/mL
IL-2 (CD8 cells only, 0.1 μM): 0.00 ng/mL
Granzyme (CD8 cells only, 0.3 μM): 0.04 ng/mL
IFN-gamma (CD8 cells only, 0.3 μM): 0.00 ng/mL
IL-2 (CD8 cells only, 0.3 μM): 0.00 ng/mL
Granzyme (CD8 cells only, 1 μM): 0.05 ng/mL
IFN-gamma (CD8 cells only, 1 μM): 0.00 ng/mL
IL-2 (CD8 cells only, 1 μM): 0.00 ng/mL
Granzyme (CD8 cells only, 3 μM): 0.04 ng/mL
IFN-gamma (CD8 cells only, 3 μM): 0.00 ng/mL
IL-2 (CD8 cells only, 3 μM): 0.00 ng/mL
Granzyme (CD8 cells only, 10 μM): 0.05 ng/mL
IFN-gamma (CD8 cells only, 10 μM): 0.00 ng/mL
IL-2 (CD8 cells only, 10 μM): 0.00 ng/mL
